≈ marks a conversion by molar mass, not a printed value. Where a SMILES comes first, the peptide text is derived from it. Where no end group is shown, it is not given here. [ ]: non-standard residue; d: D form.
Assays:
Type in all cases: cell-based
Candida albicans C627 = details: for MIC C. albicans: C627, 24 h
[1] = test system: Pseudomonas aeruginosa K799; details: for MIC P. aeruginosa: K799, 24 h
Protocol: (§1) Any of the art-known methods for measuring antimicrobial activity of peptides can be used in characterizing the peptides of the invention. In these examples, conventional methods were used to determine the minimal inhibitory concentration (MIC) of a peptide in a liquid medium (Amsterdam. Antibiotics in Laboratory Medicine, Williams and Wilkins, Baltimore (1991) 72-78). Briefly, overnight cultures of the test organisms (described below) were diluted to produce an inoculum containing approximately 10^4 to 10^5 organisms. The inoculum size was confirmed by counting the number of organisms on plates that were inoculated at the same time as the liquid cultures.
(§2) The concentration of peptide was measured by assaying for free amino groups using a dinitrophenylation assay, with polymyxin B serving as a standard. Doubling dilutions of peptide were performed (32 μg/ml-0.25 μg/ml) in 100 μl volumes in a 96-well mictrotiter plate, and all wells were subsequently inoculated with the diluted culture of the test organism. After 24 hours of incubation at 37° C., the assay was read. The MIC value is the concentration of peptide at which the growth of the test organism was reduced by 50%. The number of cells in the culture inoculum was calculated from the plate count after incubating the plate for 24 hours at 37° C. The medium used for cell culture and dilution in this assay was Luria broth (LB). Each peptide was tested three times against each organism, and the MIC values presented below are the mean values of the three experiments.

E. coli UB1005 = details: for MIC E. coli: UB1005, 24 h
Protocol: as §1, §2

[2] = test system: Staphylococcus epidermidis C621; details: for MIC S. epidermidis: C621, 24 h
Protocol: as §1, §2

[3] = test system: Staphylococcus aureus RN4220; details: for MIC S. aureus: RN4220, 24 h
Protocol: as §1, §2

Row | Molecule | MIC C. albicans C627 (Candida albicans C627) [µg/mL] | Partial killing observed in dilutions down to (Candida albicans C627; purified recombinant peptide, C. albicans C627) [µg/mL] | MIC P. aeruginosa K799 [1] [µg/mL] | MIC E.coli UB1005 (E. coli UB1005) [µg/mL] | MIC S. epidermidis C621 [2] [µg/mL] | MIC S. aureus RN4220 [3] [µg/mL] | MIC P. aeruginosa [1] [µg/mL] | MIC E. coli (E. coli UB1005) [µg/mL] | MIC S. aureus [3] [µg/mL] | MIC C. albicans (Candida albicans C627) [µg/mL] | MIC S. epidermidis [2] [µg/mL]
1 | ILPWKKWPWWRWRR [CP-3R] | > 32 | 8 | 8 | 8 | 4 | 8 | – | – | – | – | –
2 | CC[C@H](C)[C@H](N)C(=O)N[C@@H](CC(C)C)C(=O)N1CCC[C@H]1C(=O)N[C@@H](Cc1c[nH]c2ccccc12)C(=O)N[C@@H](CCCCN)C(=O)N[C@@H](Cc1c[nH]c2ccccc12)C(=O)N1CCC[C@H]1C(=O)N[C@@H](Cc1c[nH]c2ccccc12)C(=O)N[C@@H](Cc1c[nH]c2ccccc12)C(=O)N1CCC[C@H]1C(=O)N[C@@H](Cc1c[nH]c2ccccc12)C(=O)N[C@@H](CCCNC(=N)N)C(=O)N[C@@H](CCCNC(=N)N)C(=O)O [Indolicidin-R, reference compound] | >32 | – | >32 | 32 (≈ 16.8 µM) | 16 (≈ 8.39 µM) | 16 (≈ 8.39 µM) | – | – | – | – | –
3 | FFKKFPFFPFRRK [CP-24] | – | – | – | – | – | – | 32 | 8 | 8 | – | –
4 | CC[C@@H](C)[C@@H](N)C(=O)N[C@@H](CC(C)C)C(=O)N1CCC[C@H]1C(=O)N[C@@H](Cc1c[nH]c2ccccc12)C(=O)N[C@@H](CCCCN)C(=O)N[C@@H](Cc1c[nH]c2ccccc12)C(=O)N1CCC[C@H]1C(=O)N[C@@H](Cc1c[nH]c2ccccc12)C(=O)N[C@@H](Cc1c[nH]c2ccccc12)C(=O)N1CCC[C@H]1C(=O)N[C@@H](Cc1c[nH]c2ccccc12)C(=O)N[C@@H](CCCNC(=N)N)C(=O)N[C@@H](CCCNC(=N)N)C(=O)OC [Indolicidin-DC] | – | – | – | – | – | – | >32 | 4 (≈ 2.08 µM) | 8 (≈ 4.16 µM) | >32 | 2 (≈ 1.04 µM)
5 | CC[C@@H](C)[C@@H](N)C(=O)N[C@@H](CC(C)C)C(=O)N[C@@H](CCCCN)C(=O)N[C@@H](CCCCN)C(=O)N[C@@H](Cc1c[nH]c2ccccc12)C(=O)N1CCC[C@H]1C(=O)N[C@@H](Cc1c[nH]c2ccccc12)C(=O)N[C@@H](Cc1c[nH]c2ccccc12)C(=O)N1CCC[C@H]1C(=O)N[C@@H](Cc1c[nH]c2ccccc12)C(=O)N[C@@H](CCCNC(=N)N)C(=O)N[C@@H](CCCNC(=N)N)C(=O)N[C@@H](CCCCN)C(=O)OC [CP-11DC] (H-[dI]LKKWPWWPWRRK-OMe; N-terminus assumed) | – | – | – | – | – | – | 4 (≈ 2.11 µM) | 4 (≈ 2.11 µM) | 4 (≈ 2.11 µM) | 8 (≈ 4.22 µM) | 2 (≈ 1.06 µM)
6 | ILPWKWPWYVRR [CP-IA] | – | – | – | – | – | – | >32 | >32 | >32 | >32 | >32
7 | ILKKWPWWPWRRK-NH2 [CP-11N] | – | – | – | – | – | – | – | 1 | >32 | – | 8

From patent publication US7390873B2, “Antimicrobial cationic peptides” (University of British Columbia, priority 1995, dated 2008)
